US8222218B2, “Cyclopropanated carbohydrates” (Seton Hall University, priority 2008, dated 2012)

Assays:
[1] = Acute toxicity, minimal motor impairment (rotorod), mice; assay type: in vivo; details: mice, rotorod
In short: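 Mice placed on a rod rotating at 6 rpm; a compound is scored toxic when the animal falls off three times within 1 min. In rats, minimal motor deficit is scored as ataxia, an abnormal uncoordinated gait.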

seizures = assay: In vivo anticonvulsant screening (MES, scMET, minimal clonic seizure), summary in words; parameters: species or system rat, mouse; details: summary of Table 2
Description: Toxicity was measured using the minimal motor impairment test described below.
The MES test is a model for generalized tonic-clonic seizures. The seizures are highly reproducible and electrophysiologically consistent with human seizures. The test provides information about a compound's ability to prevent the spread of seizure when all neuronal circuits of the brain are maximally active. 60 Hz of alternating current (50 mA in mice, 150 mA in rats) is applied for 2 seconds via corneal electrodes that have been treated with an electrolyte solution containing an anesthetic (0.5% tetracaine HCl). Mice are tested at a variety of intervals after an i.p. injection of […] solution of the test compound (commonly in a 0.5% solution of methylcellulose) at 30, 100, and 300 mg/kg doses. Rats are examined after a 30 mg/kg (per os, p.o.) dose that is applied in a volume of 0.04 mL/g. An animal is considered “protected” from MES-induced seizures upon removal of the hind limb extensor component of the seizure.
The subcutaneous injection of metrazole, which is a convulsant, produces clonic seizures in laboratory animals. The scMET test is designed to identify compounds that raise the seizure threshold of an animal. Mice are pretreated with test compound at 30, 100, and 300 mg/kg doses in a similar manner to the MES test. Rats are treated with a 50 mg/kg dose (p.o.). At the previously determined TPE of the test compound, the dose of metrazole that will induce convulsions in 97% of animals (CD97: 85 mg/kg mice) is injected into the loose fold of the skin in the midline of the neck. The animals are placed in isolation cages to minimize stress and observed for the next 30 minutes for the presence or absence of seizures. An episode of clonic spasms (approximately 3-5 seconds) of the fore and/or hindlimbs, jaws or vibrissae is taken as the endpoint.
The minimal clonic seizure (6 Hz) test, like the MES test, is used to assess a compound's ability to protect against electrically-induced seizures. The minimal clonic (6 Hz) seizure test uses a lower frequency (6 Hz) and a longer duration of stimulation (3 seconds) than the MES test. Test compounds are pre-administered to mice via i.p. injection. At varying times, individual mice (four per time point) are challenged with sufficient current via corneal electrodes to elicit a psychomotor seizure in 97% of animals (32 mA for 3 second). Untreated mice will display seizure characterized by a minimal clonic phase followed by stereotyped, automatistic behaviors described originally as being similar to the aura of human patients with partial seizures. Animals not displaying this behavior are considered to be protected.

CCOC(=O)C1[C@@H]2[C@@H](O)[C@@H]3O[C@H](c4ccc(OC)cc4)OC[C@H]3O[C@H]12 (stereo partly drawn) [Compound 16, ethyl (2R,4aR,5aS,6aR,7R,7aS)-7-hydroxy-2-(4-methoxyphenyl)hexahydro-4H-cyclopropa[5,6]pyrano[3,2-d][1,3]dioxine-6-carboxylate]
TOX 30 0.5 h (animals toxic/tested) ([1]; 30 mg/kg, 0.5 h): 0/4 | TOX 30 4 h (animals toxic/tested) ([1]; 30 mg/kg, 4 h): 0/2 | TOX 100 0.5 h (animals toxic/tested) ([1]; 100 mg/kg, 0.5 h): 2/8 | TOX 100 4 h (animals toxic/tested) ([1]; 100 mg/kg, 4 h): 0/4 | TOX 300 0.5 h (animals toxic/tested) ([1]; 300 mg/kg, 0.5 h): 3/4 | TOX 300 4 h (animals toxic/tested) ([1]; 300 mg/kg, 4 h): 1/2 | anticonvulsant activity (seizures): anticonvulsant activity
